Structures can show the parent of a compound that is named as a salt.
target: T1, Full length human recombinant PIKFYVE (Homo sapiens, UniProt Q9Y2I7); experiment: Inhibition of PIKfyve (microfluidic electrophoresis kinase assay, PI3P/PS substrate); assay type: biochemical; conditions: 12 concentrations
T1 construct: Full length human recombinant PIKFYVE; purchased Carna Biosciences (Kobe, Japan); host or cells: baculovirus expression system
Protocol: Full length human recombinant PIKFYVE expressed in baculovirus expression system as N-terminal GST-fusion protein (265 kDa) was obtained from Carna Biosciences (Kobe, Japan). The kinase substrate was prepared by mixing and sonicating fluorescently-labeled phosphatidylinositol 3-phosphate (PI3P) with phospho-L-serine (PS) at a 1:10 ratio in 50 mM HEPES buffer pH 7.5.
The kinase reactions were assembled in 384-well plates (Greiner) in a total volume of […] as follows. Kinase protein was pre-diluted in an assay buffer comprising 25 mM HEPES, pH 7.5, 1 mM DTT, 2.5 mM MgCl2, and 2.5 mM MnCl2, and 0.005% Triton X-100, and dispensed into a 384-well plate (10 μL per well). Test compounds were serially pre-diluted in DMSO and added to the protein samples by acoustic dispensing (Labcyte Echo). The concentration of DMSO was equalized to 1% in all samples. All test compounds were tested at 12 concentrations. Apilimod was used as a reference compound and was tested in identical manner in each assay plate. Control samples (0%-inhibition, in the absence of inhibitor, DMSO only) and 100%-inhibition (in the absence of enzyme) were assembled in replicates of four and were used to calculate %-inhibition in the presence of compounds. The reactions were initiated by addition of 10 μL of 2×PI3P/PS substrate supplemented with ATP. The final concentration of enzyme was 2 nM, the final concentration of ATP was […], and the final concentration of PI3P/PS substrate was 1 μM (PI3P). The kinase reactions were allowed to proceed for 3 h at room temperature. Following incubation, the reactions were quenched by addition of […] of termination buffer (100 mM HEPES, pH 7.5, 0.01% Triton X-100, 20 mM EDTA). Terminated plates were analyzed on a microfluidic electrophoresis instrument (Caliper LabChip® 3000, Caliper Life Sciences/Perkin Elmer). The change in the relative fluorescence intensity of the PI(3)P substrate and PI(3,5)P product peaks was measured. The activity in each test sample was determined as the product to sum ratio (PSR): P/(S+P), where P is the peak height of the product, and S is the peak height of the substrate. Percent inhibition (Pinh) was determined using the following equation:
Pinh=(PSR0% inh−PSRcompound)/(PSR0% inh−PSR100% inh)*100
in which PSRcompound is the product/sum ratio in the presence of compound, PSR0% inh is the product/sum ratio in the absence of compound, and the PSR100% inh is the product/sum ratio in the absence of the enzyme.

T1 sequence (Q9Y2I7 whole entry): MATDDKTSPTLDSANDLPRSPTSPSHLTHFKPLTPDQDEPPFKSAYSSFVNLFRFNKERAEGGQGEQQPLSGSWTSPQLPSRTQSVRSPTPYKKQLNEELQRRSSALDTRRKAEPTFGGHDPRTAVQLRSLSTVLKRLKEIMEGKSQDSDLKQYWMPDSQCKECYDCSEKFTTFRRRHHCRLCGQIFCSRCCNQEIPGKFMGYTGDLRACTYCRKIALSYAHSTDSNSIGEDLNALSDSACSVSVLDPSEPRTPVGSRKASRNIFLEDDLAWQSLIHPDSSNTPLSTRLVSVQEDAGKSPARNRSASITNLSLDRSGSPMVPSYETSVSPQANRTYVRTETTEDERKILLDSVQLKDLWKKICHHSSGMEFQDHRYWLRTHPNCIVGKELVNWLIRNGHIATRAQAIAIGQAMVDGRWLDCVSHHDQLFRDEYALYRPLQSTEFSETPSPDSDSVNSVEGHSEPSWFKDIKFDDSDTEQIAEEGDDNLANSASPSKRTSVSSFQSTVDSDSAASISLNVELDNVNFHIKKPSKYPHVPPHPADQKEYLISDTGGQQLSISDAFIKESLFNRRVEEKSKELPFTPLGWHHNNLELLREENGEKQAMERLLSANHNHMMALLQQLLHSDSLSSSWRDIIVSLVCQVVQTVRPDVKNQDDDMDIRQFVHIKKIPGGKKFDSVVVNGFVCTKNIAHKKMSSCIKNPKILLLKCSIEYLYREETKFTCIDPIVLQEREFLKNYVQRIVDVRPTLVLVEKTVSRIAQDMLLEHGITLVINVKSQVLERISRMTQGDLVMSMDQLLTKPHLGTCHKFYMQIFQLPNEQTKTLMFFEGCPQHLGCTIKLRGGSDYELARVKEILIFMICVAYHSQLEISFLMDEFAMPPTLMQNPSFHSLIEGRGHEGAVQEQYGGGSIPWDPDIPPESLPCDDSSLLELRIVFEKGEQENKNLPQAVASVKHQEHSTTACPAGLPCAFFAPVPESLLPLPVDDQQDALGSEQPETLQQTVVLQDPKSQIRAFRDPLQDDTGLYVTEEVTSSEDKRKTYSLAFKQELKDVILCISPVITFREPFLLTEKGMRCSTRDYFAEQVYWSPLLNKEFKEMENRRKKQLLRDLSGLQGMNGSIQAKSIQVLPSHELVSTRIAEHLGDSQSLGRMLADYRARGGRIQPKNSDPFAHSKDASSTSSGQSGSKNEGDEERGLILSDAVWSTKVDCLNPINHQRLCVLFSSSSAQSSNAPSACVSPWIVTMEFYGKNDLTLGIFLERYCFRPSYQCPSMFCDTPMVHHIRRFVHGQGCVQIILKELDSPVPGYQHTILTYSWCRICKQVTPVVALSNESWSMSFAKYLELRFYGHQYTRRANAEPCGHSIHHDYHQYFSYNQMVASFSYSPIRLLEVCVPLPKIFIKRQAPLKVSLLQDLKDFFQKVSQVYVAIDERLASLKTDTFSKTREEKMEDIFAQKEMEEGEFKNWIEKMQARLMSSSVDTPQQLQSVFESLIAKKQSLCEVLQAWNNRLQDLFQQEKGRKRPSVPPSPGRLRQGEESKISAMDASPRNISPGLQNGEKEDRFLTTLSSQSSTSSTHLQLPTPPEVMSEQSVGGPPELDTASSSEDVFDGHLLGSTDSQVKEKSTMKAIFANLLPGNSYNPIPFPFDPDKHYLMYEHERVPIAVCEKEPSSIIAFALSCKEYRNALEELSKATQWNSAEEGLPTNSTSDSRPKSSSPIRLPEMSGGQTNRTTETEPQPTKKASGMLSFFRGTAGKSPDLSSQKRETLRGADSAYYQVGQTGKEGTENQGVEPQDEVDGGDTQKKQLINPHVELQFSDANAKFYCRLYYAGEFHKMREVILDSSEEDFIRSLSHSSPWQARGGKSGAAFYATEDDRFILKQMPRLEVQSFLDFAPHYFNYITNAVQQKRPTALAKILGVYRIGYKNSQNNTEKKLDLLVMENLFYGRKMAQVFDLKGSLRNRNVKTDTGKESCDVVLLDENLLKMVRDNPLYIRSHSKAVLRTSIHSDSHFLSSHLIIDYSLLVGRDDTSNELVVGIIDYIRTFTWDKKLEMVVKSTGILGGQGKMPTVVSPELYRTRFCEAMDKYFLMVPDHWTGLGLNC

Row | IC50 [nM] | SMILES
1 | 928 | O=C(c1cc2nc(-n3cc(-c4ccccc4)cn3)nc(N3CCOCC3)c2o1)N1CCC1 [Compound 67, azetidin-1-yl(4-morpholino-2-(4-phenyl-1H-pyrazol-1-yl)furo[3,2-d]pyrimidin-6-yl)methanone]
2 | 185 | c1cc(-c2cc3nc(Nc4cc(C5CC5)n[nH]4)nc(N4CCOCC4)c3o2)ccn1 [Compound 68, N-(5-cyclopropyl-1H-pyrazol-3-yl)-4-morpholino-6-(pyridin-4-yl)furo[3,2-d]pyrimidin-2-amine, hydrogen chloride]
3 | 338 | c1cc(-c2cc3nc(Nc4cc(CC5CC5)n[nH]4)nc(N4CCOCC4)c3o2)ccn1 [Compound 69, N-(3-(cyclopropylmethyl)-1H-pyrazol-5-yl)-4-morpholino-6-(pyridin-4-yl)furo[3,2-d]pyrimidin-2-amine hydrochloride]
4 | 79.8 | c1cc(-c2cc3nc(Nc4cc(CC5CCC5)n[nH]4)nc(N4CCOCC4)c3o2)ccn1 [Compound 71]
5 | 552 | FC(F)(F)c1cc(Nc2nc(N3CCOCC3)c3oc(-c4ccncc4)cc3n2)[nH]n1 [Compound 72, 4-morpholino-6-(pyridin-4-yl)-N-(5-(trifluoromethyl)-1H-pyrazol-3-yl)furo[3,2-d]pyrimidin-2-amine, hydrogen chloride]
6 | 141 | c1ccc(Cc2cc(Nc3nc(N4CCOCC4)c4oc(-c5ccncc5)cc4n3)[nH]n2)cc1 [Compound 73, N-(5-benzyl-1H-pyrazol-3-yl)-4-morpholino-6-(pyridin-4-yl)furo[3,2-d]pyrimidin-2-amine, hydrogen chloride]
7 | 224 | c1cc(-c2cc3nc(Nc4cc(C5CCCC5)n[nH]4)nc(N4CCOCC4)c3o2)ccn1 [Compound 74, N-(5-cyclopentyl-1H-pyrazol-3-yl)-4-morpholino-6-(pyridin-4-yl)furo[3,2-d]pyrimidin-2-amine, hydrogen chloride]
8 | 1.4 | c1csc(-c2cc(Nc3nc(N4CCOCC4)c4oc(-c5ccncc5)cc4n3)[nH]n2)c1 [Compound 75, 4-morpholino-6-(pyridin-4-yl)-N-(5-(thiophen-2-yl)-1H-pyrazol-3-yl)furo[3,2-d]pyrimidin-2-amine, hydrogen chloride]
9 | 1.1 | c1cc(-c2cc3nc(Nc4cc(-c5ccsc5)n[nH]4)nc(N4CCOCC4)c3o2)ccn1 [Compound 76, 4-morpholino-6-(pyridin-4-yl)-N-(5-(thiophen-3-yl)-1H-pyrazol-3-yl)furo[3,2-d]pyrimidin-2-amine, hydrogen chloride]
10 | 175 | CC(C)c1cc(Nc2nc(N3CCOCC3)c3oc(-c4ccncc4)cc3n2)[nH]n1 [Compound 77, N-(5-isopropyl-1H-pyrazol-3-yl)-4-morpholino-6-(pyridin-4-yl)furo[3,2-d]pyrimidin-2-amine, hydrogen chloride]
11 | 7850 | CNC(=O)c1cc2nc(Nc3cc(C4CC4)n[nH]3)nc(N3CCOCC3)c2o1 [Compound 78, 2-((3-cyclopropyl-1H-pyrazol-5-yl)amino)-N-methyl-4-morpholinofuro[3,2-d]pyrimidine-6-carboxamide hydrochloride]
12 | ≥ 10000 | CNC(=O)c1cc2nc(Nc3cc(CC4CC4)n[nH]3)nc(N3CCOCC3)c2o1 [Compound 79, 2-((5-(cyclopropylmethyl)-1H-pyrazol-3-yl)amino)-N-methyl-4-morpholinofuro[3,2-d]pyrimidine-6-carboxamide, hydrogen chloride]
13 | ≥ 10000 | CNC(=O)c1cc2nc(Nc3cc(C(F)(F)F)n[nH]3)nc(N3CCOCC3)c2o1 [Compound 81, N-methyl-4-morpholino-2-((5-(trifluoromethyl)-1H-pyrazol-3-yl)amino)furo[3,2-d]pyrimidine-6-carboxamide, hydrogen chloride]
14 | 1390 | CNC(=O)c1cc2nc(Nc3cc(Cc4ccccc4)n[nH]3)nc(N3CCOCC3)c2o1 [Compound 82]
15 | 69 | CNC(=O)c1cc2nc(Nc3cc(-c4cccs4)n[nH]3)nc(N3CCOCC3)c2o1 [Compound 85, N-methyl-4-morpholino-2-((5-(thiophen-2-yl)-1H-pyrazol-3-yl)amino)furo[3,2-d]pyrimidine-6-carboxamide, hydrogen chloride]
16 | 61 | CNC(=O)c1cc2nc(Nc3cc(-c4ccsc4)n[nH]3)nc(N3CCOCC3)c2o1 [Compound 86, N-methyl-4-morpholino-2-((5-(thiophen-3-yl)-1H-pyrazol-3-yl)amino)furo[3,2-d]pyrimidine-6-carboxamide, hydrogen chloride]
17 | 7400 | CNC(=O)c1cc2nc(Nc3cc(C(C)C)n[nH]3)nc(N3CCOCC3)c2o1 [Compound 88, 2-((5-isopropyl-1H-pyrazol-3-yl)amino)-N-methyl-4-morpholinofuro[3,2-d]pyrimidine-6-carboxamide, hydrogen chloride]

The next lines start with the compound.

Row | SMILES | IC50 [nM]
18 | O=C(c1cc2nc(Nc3cc(-c4ccccc4)n[nH]3)nc(N3CCOCC3)c2o1)N1CCC1 [Compound 53, azetidin-1-yl(4-morpholino-2-((3-phenyl-1H-pyrazol-5-yl)amino)furo[3,2-d]pyrimidin-6-yl)methanone hydrochloride] | 60
19 | O=C(c1cc2nc(Nc3cc(-c4ccccc4)[nH]n3)nc(N3CCOCC3)c2o1)N1CCCC1 [Compound 54, [4-morpholino-2-[(5-phenyl-1H-pyrazol-3-yl)amino]furo[3,2-d]pyrimidin-6-yl]-pyrrolidin-1-yl-methanone; hydrogen chloride] | 66
20 | O=C(c1cc2nc(Nc3cc(-c4ccccc4)n[nH]3)nc(N3CCOCC3)c2o1)N1CCCCC1 [Compound 55, (4-morpholino-2-((3-phenyl-1H-pyrazol-5-yl)amino)furo[3,2-d]pyrimidin-6-yl)(piperidin-1-yl)methanone hydrochloride] | 51
21 | CCN(C)C(=O)c1cc2nc(Nc3cc(-c4ccccc4)[nH]n3)nc(N3CCOCC3)c2o1 [Compound 57, N-ethyl-N-methyl-4-morpholino-2-[(5-phenyl-1H-pyrazol-3-yl)amino]furo[3,2-d]pyrimidine-6-carboxamide, hydrogen chloride] | 37
22 | CONC(=O)c1cc2nc(Nc3cc(-c4ccccc4)[nH]n3)nc(N3CCOCC3)c2o1 [Compound 58, N-methoxy-4-morpholino-2-[(5-phenyl-1H-pyrazol-3-yl)amino]furo[3,2-d]pyrimidine-6-carboxamide, hydrogen chloride] | 95
23 | O=C(NC1CC1)c1cc2nc(Nc3cc(-c4ccccc4)[nH]n3)nc(N3CCOCC3)c2o1 [Compound 59] | 4.3
24 | CN(C(=O)c1cc2nc(Nc3cc(-c4ccccc4)[nH]n3)nc(N3CCOCC3)c2o1)C1CC1 [Compound 60, N-cyclopropyl-N-methyl-4-morpholino-2-[(5-phenyl-1H-pyrazol-3-yl)amino]furo[3,2-d]pyrimidine-6-carboxamide, hydrogen chloride] | 70.2
25 | O=C(NCC1CC1)c1cc2nc(Nc3cc(-c4ccccc4)[nH]n3)nc(N3CCOCC3)c2o1 [Compound 61, N-(cyclopropylmethyl)-4-morpholino-2-[(5-phenyl-1H-pyrazol-3-yl)amino]furo[3,2-d]pyrimidine-6-carboxamide, hydrogen chloride] | 2.5
26 | CN(CC1CC1)C(=O)c1cc2nc(Nc3cc(-c4ccccc4)[nH]n3)nc(N3CCOCC3)c2o1 [Compound 62, N-(cyclopropylmethyl)-N-methyl-4-morpholino-2-[(5-phenyl-1H-pyrazol-3-yl)amino]furo[3,2-d]pyrimidine-6-carboxamide, hydrogen chloride] | 73
27 | C[C@@H](NC(=O)c1cc2nc(Nc3cc(-c4ccccc4)n[nH]3)nc(N3CCOCC3)c2o1)C1CC1 [Compound 64, (R)—N-(1-cyclopropylethyl)-4-morpholino-2-((5-phenyl-1H-pyrazol-3-yl)amino)furo[3,2-d]pyrimidine-6-carboxamide hydrochloride] | 0.9
28 | CS(=O)(=O)NC(=O)c1cc2nc(Nc3cc(-c4ccccc4)n[nH]3)nc(N3CCOCC3)c2o1 [Compound 65, N-(methylsulfonyl)-4-morpholino-2-((3-phenyl-1H-pyrazol-5-yl)amino)furo[3,2-d]pyrimidine-6-carboxamide hydrochloride] | 235
29 | CN(CC1CC1)C(=O)c1cc2nc(-n3cc(-c4ccccc4)cn3)nc(N3CCOCC3)c2o1 [Compound 66, N-(cyclopropylmethyl)-N-methyl-4-morpholino-2-(4-phenyl-1H-pyrazol-1-yl)furo[3,2-d]pyrimidine-6-carboxamide] | 612
